We go through one molecule from PMC3412845, “Waking Action of Ursodeoxycholic Acid (UDCA) Involves Histamine and GABAA Receptor Block” (PLoS ONE, 2012).

One data set concerns TMN neurons. Nature of the data set: Firing of TMN neurons recorded in hypothalamic slices. Type of data set: cell-based, mouse. Particulars: UDCA 100 µM, n = 10. The protocol: Recordings from histaminergic neurons in male Wistar rat (22–26 day old) or 30–60 day old mouse (SV129, histidine decarboxylase deficient HDC−/− or their wild type littermates) hypothalamic slices were performed as previously described. Slices were obtained between 9 and 11 a.m. In the beginning of whole-cell voltage clamp recordings TMN neurons were identified with the help of DIC microscopy and electrophysiological criteria as previously described. Inhibitory postsynaptic currents (IPSCs) were evoked by local stimulation through a bipolar stainless-steel stimulating electrode (50 µm; WPI, UK). The stimulation of axonal endings coming to TMN from ventrolateral preoptic area (VLPO) was done as described in [22]. […] Individual neurons were separated by vibrodissociation after brief preincubation with papain from the hypothalamic slices of mice or rats and identified as TMN neurons according to their size and shape. Identification was confirmed post hoc with the single-cell RT-PCR (all data presented in the manuscript were obtained from histidine decarboxylase-expressing neurons), [40]. TMN neurons from HDC−/− mice were identified by the expression of peripherin [16]. […] Membrane potentials were not corrected for liquid junction potential (5.6 mV, calculated with LJPCalc, Barry, 1994). […]

For a further data set, the system named is NMDA receptors. The data set is described as follows: NMDA-evoked currents in isolated neurons. It counts as cell-based. The protocol: Recordings from histaminergic neurons in male Wistar rat (22–26 day old) or 30–60 day old mouse (SV129, histidine decarboxylase deficient HDC−/− or their wild type littermates) hypothalamic slices were performed as previously described. Slices were obtained between 9 and 11 a.m. In the beginning of whole-cell voltage clamp recordings TMN neurons were identified with the help of DIC microscopy and electrophysiological criteria as previously described. Inhibitory postsynaptic currents (IPSCs) were evoked by local stimulation through a bipolar stainless-steel stimulating electrode (50 µm; WPI, UK). The stimulation of axonal endings coming to TMN from ventrolateral preoptic area (VLPO) was done as described in [22]. Visual identification of histaminergic neurons recorded in cell-attached configuration (see [16]) was confirmed by the significant reduction of firing rate by the histamine 3 (H3) receptor agonist R-α-methylhistamine (0.2 µM), which was performed at the end of each experiment. Individual neurons were separated by vibrodissociation after brief preincubation with papain from the hypothalamic slices of mice or rats and identified as TMN neurons according to their size and shape. Identification was confirmed post hoc with the single-cell RT-PCR (all data presented in the manuscript were obtained from histidine decarboxylase-expressing neurons), [40]. TMN neurons from HDC−/− mice were identified by the expression of peripherin [16]. Whole-cell voltage-clamp recordings from isolated neurons were done with an EPC-9 amplifier and TIDA for Windows (HEKA, Lambrecht, Germany) at room temperature. Membrane potentials were not corrected for liquid junction potential (5.6 mV, calculated with LJPCalc, Barry, 1994). The intracellular solution was composed of (in mM) 140 KCl, 2 MgCl2, 0.5 CaCl2, 5 EGTA, 2 ATP and 10 HEPES (pH 7.2 adjusted with NaOH). A fast perfusion technique was used for application of ligands and modulators of fast ionotropic receptors, [41]. […] EC50 is the ligand concentration producing a half-maximal response, [ligand] is ligand concentration, and n is the Hill slope. Hill coefficients were obtained from the slope of the log/log plot of the dose-response curves. […] Steady-state amplitudes of the responses were used for the construction of dose-response plots if not mentioned otherwise.
For the testing of UDCA action at NMDA receptors a maximal 0.2 mM concentration of agonist was used. Recordings were done in Mg^2+ -free solution in the presence of 10 µM of glycine. NMDA-currents were abolished by the NMDA receptor antagonist D-AP5 (100 µM).

For a further data set, the target named is T1, α1β3γ2L GABAA receptors (UniProt P22723+P28472+P62813).
T1 construct: expressed in transfected cells; host or cells: HEK293
Nature of the data set: Patch-clamp of recombinant α1β3γ2L GABAAR in HEK293 cells. It counts as cell-based, rat α1, human β3, mouse γ2L. How it is done: (§1) HEK 293 cells were obtained from DSM (Deutsche Sammlung von Mikroorganismen und Zellkulturen GmbH, DSM, Braunschweig). They were grown and maintained according to published standard protocols. Briefly, cells were grown in minimal essential medium supplemented with 10% fetal bovine serum, 100units/ml penicillin and streptomycin and 2 mM L-glutamine and splitted once per week. Semiconfluent cells were transfected on the third day after splitting with the help of Lipofectamine 2000 (Invitrogen), recordings were done 48–72 hrs after transfection.
(§2) The GABAAR subunit cDNAs, generously donated by G.Gisselmann (rat α1, mouse γ2L, rat β1, β2 and human β3 [26]) and J.H. Steinbach (rat α1V256S [28] and rat α1Q241L [44]), were subcloned into pcDNA3 (Invitrogen, Karlsruhe, Germany) and applied in a ratio 1∶1∶1 for the α1βxγ2L receptor and 1∶1 for α1β3 or β3γ2L receptors. […] For each receptor type patch clamp recordings were obtained from at least three separate transfections. Whole-cell patch clamp recordings were done in a similar extracellular solution as for the native cells (see above) except that the concentration of MgCl2 was reduced to 1.2 mM. Intracellular electrodes contained 140 mM CsCl (instead of KCl), pH adjusted with CsOH. The voltage was held at −40 mV.
(The patch-clamp technique gives a direct electrical read-out from membranes.)

Another data set has as its target T2, β3γ2L GABAA receptors (UniProt P22723+P28472).
T2 construct: expressed in transfected cells; host or cells: HEK293
The data set is described as follows: Patch-clamp of recombinant β3γ2L receptors in HEK293 cells, histamine-evoked currents. Particulars: histamine 5 mM. It counts as cell-based, human β3, mouse γ2L. How it is done: as §1, §2

On the set-up of data set [1]: method as in PMID 22356133. The conditions noted are these: cited from earlier work.

T1 sequence (P62813 28-455): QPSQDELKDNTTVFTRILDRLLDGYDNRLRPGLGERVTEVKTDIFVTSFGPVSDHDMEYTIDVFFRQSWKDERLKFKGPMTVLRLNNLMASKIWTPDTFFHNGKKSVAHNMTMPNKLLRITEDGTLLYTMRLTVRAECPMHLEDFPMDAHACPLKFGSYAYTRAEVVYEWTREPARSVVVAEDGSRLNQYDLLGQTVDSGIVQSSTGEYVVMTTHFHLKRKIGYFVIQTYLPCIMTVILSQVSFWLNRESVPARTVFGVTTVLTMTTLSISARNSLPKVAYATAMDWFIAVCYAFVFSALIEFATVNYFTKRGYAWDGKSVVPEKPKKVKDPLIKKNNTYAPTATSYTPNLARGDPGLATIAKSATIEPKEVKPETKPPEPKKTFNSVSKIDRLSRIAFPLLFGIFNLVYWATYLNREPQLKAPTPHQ
T1 sequence (P28472 26-473): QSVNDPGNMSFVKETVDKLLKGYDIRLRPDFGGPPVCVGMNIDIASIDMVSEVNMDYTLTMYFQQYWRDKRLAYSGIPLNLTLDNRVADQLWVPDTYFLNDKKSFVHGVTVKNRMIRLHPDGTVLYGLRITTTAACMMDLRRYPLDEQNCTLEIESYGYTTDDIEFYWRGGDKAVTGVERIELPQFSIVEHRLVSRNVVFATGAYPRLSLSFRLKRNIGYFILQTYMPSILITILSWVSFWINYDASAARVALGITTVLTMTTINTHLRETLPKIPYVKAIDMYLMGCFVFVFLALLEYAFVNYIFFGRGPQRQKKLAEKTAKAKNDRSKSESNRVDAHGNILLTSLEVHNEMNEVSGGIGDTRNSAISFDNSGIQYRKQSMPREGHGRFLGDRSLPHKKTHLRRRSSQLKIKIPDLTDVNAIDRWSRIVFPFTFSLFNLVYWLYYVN
T1 sequence (P22723 39-474): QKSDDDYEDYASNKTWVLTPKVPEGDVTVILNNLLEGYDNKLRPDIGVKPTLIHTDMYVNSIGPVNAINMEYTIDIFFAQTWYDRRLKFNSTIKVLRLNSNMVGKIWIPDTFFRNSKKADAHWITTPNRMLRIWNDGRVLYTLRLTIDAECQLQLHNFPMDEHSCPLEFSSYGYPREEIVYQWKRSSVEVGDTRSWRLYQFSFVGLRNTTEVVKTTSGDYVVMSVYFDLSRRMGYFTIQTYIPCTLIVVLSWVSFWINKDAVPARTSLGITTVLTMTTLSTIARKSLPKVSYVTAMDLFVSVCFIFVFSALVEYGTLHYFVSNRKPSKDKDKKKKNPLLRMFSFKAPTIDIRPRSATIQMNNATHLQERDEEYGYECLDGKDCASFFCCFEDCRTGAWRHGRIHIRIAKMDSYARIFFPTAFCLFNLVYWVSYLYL
T2 sequence (P28472 26-473): as the sequence (P28472 26-473) above
T2 sequence (P22723 39-474): as the sequence (P22723 39-474) above

With `C[C@H](CCC(=O)O)[C@H]1CC[C@H]2[C@@H]3[C@@H](O)C[C@@H]4C[C@H](O)CC[C@]4(C)[C@H]3CC[C@]12C` [UDCA, ursodeoxycholic acid], in the data set with TMN neurons, the “firing at the end of UDCA application” value was 86±5 % of control. Also, the “concentration above which block of NMDA receptors starts” value in the data set with NMDA receptors is reported as “higher than 100 µM”. For the same molecule, the NMDA-receptor mediated currents entry with NMDA receptors (100 µM) was “did not affect”. The IC50 (usually the concentration needed to halve the response being measured) in the data set with NMDA receptors (read-out: IC50 of NMDA receptor block, n = 4, NMDA 0.2 mM, Mg2+-free, 10 µM glycine) is 540 ± 40 µM; on α1β3γ2L GABAA receptors (read-out: IC50 of block of GABA-evoked steady-state currents), 73 µM; at β3γ2L GABAA receptors (read-out: IC50 of block of histamine-evoked currents) it was 232 ± 66 µM. For the same molecule, the figures for the “Hill coefficient nH of UDCA block” value on α1β3γ2L GABAA receptors (maximal GABA) and at β3γ2L GABAA receptors were 0.63 and 0.62, respectively. Besides, in data set [1], the “access to the CNS” value was “reaches the CNS”.
